The numbers were not newly measured in US20240315991A1, “USES OF HNF4 ALPHA AGONISTS” (Sanford Burnham Prebys Medical Discovery Institute, priority 2023, published 2024), which cites them from elsewhere.

SMILES strings stand for the structures.

The target in series [1] is T1, HNF4α (Homo sapiens, UniProt P41235).
T1 sequence (P41235 1-474): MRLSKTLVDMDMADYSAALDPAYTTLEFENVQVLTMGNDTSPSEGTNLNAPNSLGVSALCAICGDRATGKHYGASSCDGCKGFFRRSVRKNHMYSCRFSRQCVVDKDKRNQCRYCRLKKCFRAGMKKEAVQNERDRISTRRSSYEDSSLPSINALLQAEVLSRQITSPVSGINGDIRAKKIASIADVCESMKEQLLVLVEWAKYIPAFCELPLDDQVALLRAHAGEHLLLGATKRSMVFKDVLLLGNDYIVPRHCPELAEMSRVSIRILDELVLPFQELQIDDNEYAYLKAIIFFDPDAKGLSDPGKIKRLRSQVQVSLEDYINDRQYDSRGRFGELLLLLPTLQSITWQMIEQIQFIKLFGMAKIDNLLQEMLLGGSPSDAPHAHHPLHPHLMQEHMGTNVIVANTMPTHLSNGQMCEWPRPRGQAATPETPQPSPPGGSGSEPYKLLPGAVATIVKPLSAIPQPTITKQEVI
The note with it: GFP expressed under the control of the human insulin promoter; cited from earlier work.

For series [2] the following is noted: cited from earlier work.
In series [3] the target is T1, HNF4α. The note with it: cited from earlier work.

Take `CC(Cc1cccc(C(F)(F)F)c1)NCCOC(=O)c1ccccc1` (centres unmarked) [Benfluorex]: the “agonism of HNF4α” value on HNF4α [1] is “weak agonists”.

Regarding `CCN(CCCc1ccccc1)CCCc1ccccc1` [Alverine], the “agonism of HNF4α” value on HNF4α [1] was “weak agonists”.

With `COc1cc(/C=C/C(=O)NCCc2ccc(O)cc2)ccc1O` [NFT, N-trans feruloyltyramine, reference compound], in series [2], the oral bioavailability result is given as “poor”. In addition, at HNF4α [3] (HNF4α siRNA ablates their effect), the “specificity for HNF4α” value was “exhibit specificity for HNF4α”. For the same molecule, the “activation of HNF4α, potency compared with Alverine and Benfluorex” value on HNF4α [3] is “much more potent activators”.
